The results in this text go back to US20260273020A1, “OBESTATIN FOR USE AS ANTINEOPLASTIC AGENT IN THE TREATMENT OF PANCREATIC CANCER” (SERVIZO GALEGO DE SAÚDE, priority 2023, published 2026).

Holding throughout (type): in vivo, C57BL/6J mice
The test system of experiment [1] is pERK1/2(T202/Y204), ERK1/2, pAkt(S473), Akt. In words: Immunoblot of tumoral pancreatic tissue: ERK1/2 and Akt. How it is done: (§1) FIG. 4. (A) Analysis and quantification of Ki67 positive proliferative cells by immunohistochemistry in the pancreatic tumors of C57BL/6J mice (n=4) orthotopically injected with KPC FC1242 cells and treated with vehicle [NaCl, 0.9% (w/v)] or obestatin (500 nmol/Kg/72 h). Magnification: 4×. (B) Immunoblot analysis of pERK1/2(T202/Y204), ERK1/2, pAkt(S473), and Akt in tumoral pancreatic tissue. Results are expressed as fold of control of the non-treated injected mice [control; mean±SE (*, P<0.05)].
(§2) Mice were weighed at set times over the 15-day period. The sterilized surgical material was used for the tissue extraction. Pancreases and muscles were carefully removed from each animal minimizing contamination with surrounding tissue or mouse hair. Pancreases and muscles were weighed. The skeletal muscles selected were: tibialis anterior, TA; extensor digitorum longus, EDL; gastrocnemius, GAST; soleus, SOL; and diaphragm, DIA. Pancreases were also measured with a scale (cm) and pictures were taken. • Histology—Pancreas samples for histology were fixed in 4% paraformaldehyde in PBS at room temperature overnight. After fixation, samples were dehydrated and embedded in paraffin blocks. For this study, 3-micron sections were cut from each block and placed on pre-cleaned slides (Thermo Fisher Scientific, Waltham, MA, USA). […] The lysates were clarified by centrifugation (18,000×g, 15 min, 4° C.), and the protein concentration was quantified by the Quantipro™ BCA assay kit (Sigma-Aldrich, St. Louis, MO, US).
Tissues were disrupted and homogenized in ice-cold lysis buffer [50 mM Tris-HCl pH 7.2, 150 mM NaCl, 1 mM EDTA, 1% (v/v) NP-40, 0.25% (w/v) Na-deoxycholate, protease inhibitor cocktail (PIC; 1:100; Sigma Chemical Co., St. Luis, MO, US), phosphatase inhibitor cocktail (PHIC; 1:100; Sigma Chemical Co., St. Luis, MO, US)] with 5 mm stainless steel beads using a TissueLyser (Qiagen, Hilden, DE) at 30 Hz for 3 min. […] Supernatants were recovered and the protein was quantified with BCA Protein Assay Kit (Thermo Fisher Scientific, Rockford, IL, US). […]
(A western blot detects proteins with antibodies after separation by electrophoresis.)

Experiment [2] concerns Ki67 positive proliferative cells. In words: Ki67 immunohistochemistry of pancreatic tumours. As to conditions: tumour area; obestatin 500 nmol/Kg/72 h. How it is done:
as §1
Mice were weighed at set times over the 15-day period. The sterilized surgical material was used for the tissue extraction. […] Pancreases were also measured with a scale (cm) and pictures were taken. • Histology—Pancreas samples for histology were fixed in 4% paraformaldehyde in PBS at room temperature overnight. […] The lysates were clarified by centrifugation (18,000×g, 15 min, 4° C.), and the protein concentration was quantified by the Quantipro™ BCA assay kit (Sigma-Aldrich, St. Louis, MO, US). […]
EnVision™ peroxidase FLEX/HRP (Dako Agilent Technologies, Glostrup; DK) was employed as a detection system. […] Ki67 was analysed immunohistochemically. […] For Ki67 expression quantification in the samples, ten fields of the tumour representative DAB images were quantified by using the Fiji/Image J software.

The test system of experiment [3] is pNF-kB p65(S536), pSTAT3(S727). The experiment is described as follows: Immunoblot of pancreatic tumors: NF-kB and STAT3. As to conditions: obestatin 500 nmol/Kg/72 h. As for the experimental part: FIG. 8. Immunoblot analysis of pNF-kB p65(S536), NF-kB p65, pSTAT3(Y705), pSTAT3(S727), and STAT3 in the pancreatic tumors of C57BL/6J mice (n=4) orthotopically injected with KPC FC1242 cells and treated with vehicle [NaCl, 0.9% (w/v)] or obestatin (500 nmol/Kg/72 h). Results are expressed as fold of control of the non-treated injected mice [control; mean±SE (*, P<0.05)].
as §2, with “US). […]” for “US).”

[4] abbreviates: obestatin 500 nmol/Kg/72 h, referenced to non-treated animals.

With obestatin, the “total expressions of ERK and AKT” value in experiment [1] (Western blotting) was “unchanged”. In addition, in experiment [1] (setting [4]), the “Akt activation augmented, pAkt(S473)” value came out at 369.5±100.1% and the “reduction in ERK1/2 activation, pERK1/2(T202/Y204)” value is given as around 50%. Moreover, the “diminution in the number of Ki67 positive cells” value in experiment [2] worked out at 56.0±5.2%. In experiment [3], the “downregulation of pNF-KB p65(S536)” value came to 43.6±9.0% and the “downregulation of pSTAT3(S727)” value worked out at 52.3±12.4%.
